The values that follow come from patent US20170046476A1, “SYSTEMS, APPARATUS, AND METHODS FOR ANALYZING AND PREDICTING CELLULAR PATHWAYS” (priority 2015, published 2017).

The subject of the experiment is STHdh Q111 cells. The experiment is described as follows: Multiparameter high content imaging for the analysis of cell apoptosis (calcein-AM / propidium iodide / Hoechst). In kind it is cell-based, mouse. As to conditions: for apoptosis / percentage of dead cells (propidium iodide-positive cells): STHdh Q111 cells treated with FTY720-P vs untreated (vehicle), 24 hours, serum-free medium, P-value=7.98×10^−5, two-sided student t-test, two independent experiments, twenty replicates each. The source says: FIG. 16B is a bar plot comparing percentages of dead cells in STHdh Q111 cells not treated with an analogue of S1P (FTY720-P) to STHdh Q111 cells treated with FTY720-P in accordance with some embodiments. […] In contrast, this approach inferred the underlying network of sphingolipid dysregulation and the role of S1P in diseased cells without any prior assumptions.
FIG. 17 is a series of images illustrating cell viability, morphology, and shape in accordance with some embodiments. Images 1702, 1704, and 1706 show STHdh Q7 cells, STHdh Q111 cells, and STHdh Q111 cells treated with FTY720-P, respectively, following treatment with calcein to detect viable cells and monitor changes in cell shape and morphology. Images 1708, 1710, and 1712 show STHdh Q7 cells, STHdh Q111 cells, and STHdh Q111 cells treated with FTY720-P, respectively, following treatment with propidium iodide, which stains late apoptotic cells with damaged membranes. As shown, hidden components inferred by using the described approach rescue diseased cells.
According to some embodiments, STHdhQ7/Q7 and STHdhQ111/Q111 striatal cells were trypsinized, harvested in pre-warmed growth medium and quantified using an automated cell counter (available from, e.g., Countess II, Life Technologies). Six thousand cells per well were seeded in sterile, black 96-well microplates with flat, clear bottom. After 24 hours, the complete medium was removed and replaced with phenol red- and serum-free medium containing either FTY720 phosphate (available from Sigma-Aldrich) or vehicle (e.g., DMSO, available from Sigma-Aldrich) and cells were incubated for 24 hours at 33° C. A multiple staining solution containing 1 μg/ml calcein-AM, 2 μg/ml propidium iodide and 1.5 μg/ml […] (all available from Life Technologies) was added to detect and quantify live, dead, and total cells, respectively. After 20 minutes in incubation, a Cellomics Arrayscan Platform (available from Thermo Scientific) was used for imaging acquisition. […] Cell loss was expressed as the percentage of propidium iodide-positive cells. […]

For the substance FTY720 phosphate [FTY720-P], the “apoptosis / percentage of dead cells (propidium iodide-positive cells)” value is given as “significantly decreasing apoptosis”. The “apoptosis / percentage of dead cells (propidium iodide-positive cells)” value (listed as Phosphorylated FTY720) is given as “significantly decrease apoptosis”. The “effect of treating diseased cells (neuroprotection)” value (STHdh cell line model of Huntington's disease, summary statement) was “neuroprotective effects”.
